Test [1] has as its target T1, Hsp90α/p23 interactions (Homo sapiens, UniProt P07900).
T1 construct: expressed in transfected cells; also with FL-eGFP reporter (293Tα-FG) and as xenografts in nude mice
Briefly: HTS dose response, 293T cells stably expressing Hsp90α/p23 split RL reporters. As to conditions: inhibition of bioluminescence signals by 50% vs carrier control; 8 point dose response 0.156-20 μM; 24 h. Type of test: cell-based. The protocol:
Novel Hsp90 inhibitors using a commercial 30,176 small molecule chemical compound library with unknown targets and molecular mechanisms (FIG. 9B) were also identified. 293T cells stably expressing Hsp90α/p23 or Hsp90β/p23 split RL reporters were treated with each compound at 8.3 μM.
Baseline complemented RL activities were determined 90 mins after addition of 20 μl of ENDUREN® (10 μM final concentration) (Promega, Madison, Wis.) using the Analyst GT (Molecular Device, Sunnyvale, Calif.), with an acquisition time of 0.2 sec per well. Cells were incubated with compounds for 24 h prior to re-determination of complemented RL activities, and normalized to the mean RL activities of untreated cells in columns 1-2. Another small molecule chemical library with 30,176 compounds (SPECS, Wakefield, R.I.) was also used in screening modulators of Hsp90(α/β)/p23 inhibitors (at 8.3 μM, one drug per well for initial screening). For dose response/confirmation assay the compounds were tested in duplicate in an 8 point (0.156-20 μM) dose response assay for RL activities for both Hps90(α/β)/p23 interactions. The effect of each compound on cell proliferation at 20 μM was determined using Cell Titer-Blue assay in duplicate wells. […]

Test [2] addresses T1, Hsp90α/p23 interactions. Kind of test: CP9 analogue evaluation, RL/FL imaging in 293Tα-FG cells. In kind it is cell-based. As to conditions: time- and dose-response curves in 293T-FG cells; read-out: IC50 for inhibition of Hsp90α/p23 signals. Here is the method: To improve the efficacy of CP9 in disruption of Hsp90(α/β)/p23 interactions in living mice, a structure-activity relationship (SAR) study was performed using 62 structural analogues (10 μM) with different modifications on CP9, as shown in FIGS. 2A-2G, using the 293T(α/β)-FG stable cells. Their effects on Hsp90(α/β)/p23 interactions and cell proliferation were monitored by sequential RL (FIG. 11A) and FL imaging at 24 h. CP9, PU-H71 and 17-AAG were used as positive controls. The net effect on Hsp90(α/β)/p23 interactions was determined by normalizing RL to that of FL signals and to that of carrier control-treated cells (FIG. 11B).
The IC50 for growth inhibition by A17 was about 2-fold lower than that of CP9 (FIG. 12A).
CP9 (0.3-10 μM), 17-AAG (10 μM) and PU-H71 (5 μM) were used as positive controls in triplicate wells. The efficacy of the analogues in disruption of Hsp90(α/β)/p23 and cell proliferation were monitored by RL imaging (2 h post upon addition of ENDUREN® at 30 μM final concentration) followed by FL imaging (10 mins post addition of D-Luc at 0.225 mg/ml final concentration) using a cooled CCD camera (1 min and 10 sec for RL and FL imaging, respectively). […] The effect of the CP9 analogues on degradation of Hsp90 client proteins in 293T cells were also monitored by western blotting as described above.

pIC50: −log10 of the molar value.

Take `Cc1cc(NC(=O)CSc2nc(-c3cccs3)cc(C(F)(F)F)n2)no1` [CP9, N-(5-methylisoxazol-3-yl)-2-(4-(thiophen-2-yl)-6-(trifluoromethyl)pyrimidin-2-ylthio)acetamide]: the figures for the pIC50 on Hsp90α/p23 interactions [1] and on Hsp90α/p23 interactions [2] were 5.49 and 6.35, respectively.

These data come from patent US20130310347A1, “MULTI-MODALITY MOLECULAR IMAGING HIGH-THROUGHPUT ASSAY FOR IDENTIFYING HEAT SHOCK PROTEIN 90 (HSP90) INHIBITORS” (The Board of Trustees of the Leland Stanford Junior …, priority 2012, published 2013).
